According to patent publication US6667387B1, “HCV core peptides” (priority 1992, dated 2003):
Ends that are not written are not given here.

How the values were obtained:
[1] = test system: antibodies in sera from HCV-seropositive donors; experiment: ELISA with HCV antibody-positive sera (biotinylated peptides on streptavidin- or avidin-coated plates, unbiotinylated peptides coated directly); format: binding, human; settings: for PEPTIDE ELISA (O.D.): Table 12, biotinylated 20-mers
In short: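 Peptides coated either directly at 2–5 or 3 μg/ml in carbonate buffer pH 9.6, or biotinylated at 1 μg/ml on streptavidin-coated wells (3 μg/ml). Plates casein-blocked, then human sera (1:100 or 1:20) incubated 1 h at 37° C. Bound antibody detected with HRP anti-human Ig/TMB, read as OD450.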

[2] = ELISA with seronegative / negative control sera (specificity); format: binding, human
In short: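 Specificity readout is OD at 450 nm (HRP goat anti-human Ig, TMB/H2O2, sulfuric acid stop), with ≥0.250 counted positive. Seronegative donor sera (typically 1:100, 1 h, 37° C) were applied to casein-blocked wells coated with peptide directly or via streptavidin capture of biotinylated peptide.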

ETWKKPDYEPPVVHGCPLPP
optical density (450 nm) ([1]; Table 4G, serum 1, 20-fold dilution): 2.691 | optical density (450 nm) ([1]; Table 4G, serum 33, 20-fold dilution): 1.813 | optical density (450 nm) ([1]; Table 4G, serum 39, 20-fold dilution): 0.213 | optical density (450 nm) ([1]; Table 4G, serum 47, 20-fold dilution): 2.611 | optical density (450 nm) ([1]; Table 4G, serum 79, 20-fold dilution): 2.105 | optical density (450 nm) ([1]; Table 4G, serum 83, 20-fold dilution): 1.232 | optical density (450 nm) ([1]; Table 4G, serum 88, 20-fold dilution): 1.858 | optical density (450 nm) ([1]; Table 4G, serum 89, 20-fold dilution): 2.309 | optical density (450 nm) ([1]; Table 4G, serum 91, 20-fold dilution): 1.132 | optical density (450 nm) ([1]; Table 4G, serum 99, 20-fold dilution): 1.526 | optical density (450 nm) ([1]; Table 4G, serum 104, 20-fold dilution): 1.998 | optical density (450 nm) ([1]; Table 4G, serum 105, 20-fold dilution): 2.053 | optical density (450 nm) ([1]; Table 4G, serum 110, 20-fold dilution): 2.065 | optical density (450 nm) ([1]; Table 4G, serum 111, 20-fold dilution): 1.542 | optical density (450 nm) ([1]; Table 4G, serum 112, 20-fold dilution): 1.408 | optical density (450 nm) ([1]; Table 4G, serum 116, 20-fold dilution): 1.978 | optical density (450 nm) ([1]; Table 4G, serum 120, 20-fold dilution): 2.031 | optical density (450 nm) ([1]; Table 5, sample 8242 (positive), peptide concentration 0.01 micrograms per milliliter, listed as HCV peptide XVIII): 1.185 | optical density (450 nm) ([1]; Table 5, sample 8242 (positive), peptide concentration 0.03 micrograms per milliliter, listed as HCV peptide XVIII): 1.188 | optical density (450 nm) ([1]; Table 5, sample 8242 (positive), peptide concentration 0.1 micrograms per milliliter, listed as HCV peptide XVIII): 0.946 | optical density (450 nm) ([1]; Table 5, sample 8242 (positive), peptide concentration 0.3 micrograms per milliliter, listed as HCV peptide XVIII): 0.873 | optical density (450 nm) ([1]; Table 5, sample 8242 (positive), peptide concentration 1.0 micrograms per milliliter, listed as HCV peptide XVIII): 0.839 | optical density (450 nm) ([1]; Table 5, sample 8242 (positive), peptide concentration 3.0 micrograms per milliliter, listed as HCV peptide XVIII): 0.749 | optical density (450 nm) ([1]; Table 5, sample 8243 (positive), peptide concentration 0.01 micrograms per milliliter, listed as HCV peptide XVIII): 0.462 | optical density (450 nm) ([1]; Table 5, sample 8243 (positive), peptide concentration 0.03 micrograms per milliliter, listed as HCV peptide XVIII): 0.611 | optical density (450 nm) ([1]; Table 5, sample 8243 (positive), peptide concentration 0.1 micrograms per milliliter, listed as HCV peptide XVIII): 0.661 | optical density (450 nm) ([1]; Table 5, sample 8243 (positive), peptide concentration 0.3 micrograms per milliliter, listed as HCV peptide XVIII): 0.629 | optical density (450 nm) ([1]; Table 5, sample 8243 (positive), peptide concentration 1.0 micrograms per milliliter, listed as HCV peptide XVIII): 0.627 | optical density (450 nm) ([1]; Table 5, sample 8243 (positive), peptide concentration 3.0 micrograms per milliliter, listed as HCV peptide XVIII): 0.671 | optical density (450 nm) ([1]; Table 5, sample 8318 (positive), peptide concentration 0.01 micrograms per milliliter, listed as HCV peptide XVIII): 1.711 | optical density (450 nm) ([1]; Table 5, sample 8318 (positive), peptide concentration 0.03 micrograms per milliliter, listed as HCV peptide XVIII): 2.308 | optical density (450 nm) ([1]; Table 5, sample 8318 (positive), peptide concentration 0.1 micrograms per milliliter, listed as HCV peptide XVIII): 2.409 | optical density (450 nm) ([1]; Table 5, sample 8318 (positive), peptide concentration 0.3 micrograms per milliliter, listed as HCV peptide XVIII): 2.392 | optical density (450 nm) ([1]; Table 5, sample 8318 (positive), peptide concentration 1.0 micrograms per milliliter, listed as HCV peptide XVIII): 2.396 | optical density (450 nm) ([1]; Table 5, sample 8318 (positive), peptide concentration 3.0 micrograms per milliliter, listed as HCV peptide XVIII): 2.391 | optical density (450 nm) ([1]; Table 5, sample 8326 (positive), peptide concentration 0.01 micrograms per milliliter, listed as HCV peptide XVIII): 1.848 | optical density (450 nm) ([1]; Table 5, sample 8326 (positive), peptide concentration 0.03 micrograms per milliliter, listed as HCV peptide XVIII): 2.219 | optical density (450 nm) ([1]; Table 5, sample 8326 (positive), peptide concentration 0.1 micrograms per milliliter, listed as HCV peptide XVIII): 2.331 | optical density (450 nm) ([1]; Table 5, sample 8326 (positive), peptide concentration 0.3 micrograms per milliliter, listed as HCV peptide XVIII): 2.331 | optical density (450 nm) ([1]; Table 5, sample 8326 (positive), peptide concentration 1.0 micrograms per milliliter, listed as HCV peptide XVIII): 2.331 | optical density (450 nm) ([1]; Table 5, sample 8326 (positive), peptide concentration 3.0 micrograms per milliliter, listed as HCV peptide XVIII): 2.315 | optical density (450 nm) ([1]; Table 8, serum 8243 (HCV), Avidin): 0.118 | optical density (450 nm) ([1]; Table 8, serum 8247 (HCV), Avidin): 0.046 | optical density (450 nm) ([1]; Table 8, serum 8248 (HCV), Avidin): 0.905 | optical density (450 nm) ([1]; Table 8, serum 8269 (HCV), Avidin): 1.513 | optical density (450 nm) ([1]; Table 8, serum 8273 (HCV), Avidin): 0.052 | optical density (450 nm) ([1]; Table 8, serum 8278 (HCV), Avidin): 0.052 | optical density (450 nm) ([1]; Table 8, serum 8285 (HCV), Avidin): 0.146 | optical density (450 nm) ([1]; Table 8, serum 8290 (HCV), Avidin): 2.323 | optical density (450 nm) ([1]; Table 8, serum 8291 (HCV), Avidin): 0.049 | PEPTIDE ELISA (O.D.) ([1]; serum 0843): 0.127 | PEPTIDE ELISA (O.D.) ([1]; serum 8240): 1.511 | PEPTIDE ELISA (O.D.) ([1]; serum 8241): 0.273 | PEPTIDE ELISA (O.D.) ([1]; serum 8242): 2.453 | PEPTIDE ELISA (O.D.) ([1]; serum 8332): 2.290 | PEPTIDE ELISA (O.D.) ([1]; serum 8339): 2.757 | PEPTIDE ELISA (O.D.) ([1]; serum 8350): 0.182 | PEPTIDE ELISA (O.D.) ([1]; serum 8377): 1.378 | PEPTIDE ELISA (O.D.) ([1]; serum 8378): 2.337 | PEPTIDE ELISA (O.D.) ([1]; serum 8388): 2.358 | optical density (450 nm) ([2]; Table 4G, negative serum): 0.001 | optical density (450 nm) ([2]; Table 5, sample 1747 (negative), peptide concentration 0.01 micrograms per milliliter, listed as HCV peptide XVIII): 0.042 | optical density (450 nm) ([2]; Table 5, sample 1747 (negative), peptide concentration 0.03 micrograms per milliliter, listed as HCV peptide XVIII): 0.058 | optical density (450 nm) ([2]; Table 5, sample 1747 (negative), peptide concentration 0.1 micrograms per milliliter, listed as HCV peptide XVIII): 0.044 | optical density (450 nm) ([2]; Table 5, sample 1747 (negative), peptide concentration 0.3 micrograms per milliliter, listed as HCV peptide XVIII): 0.061 | optical density (450 nm) ([2]; Table 5, sample 1747 (negative), peptide concentration 1.0 micrograms per milliliter, listed as HCV peptide XVIII): 0.042 | optical density (450 nm) ([2]; Table 5, sample 1747 (negative), peptide concentration 3.0 micrograms per milliliter, listed as HCV peptide XVIII): 0.047 | optical density (450 nm) ([2]; Table 5, sample 1781 (negative), peptide concentration 0.01 micrograms per milliliter, listed as HCV peptide XVIII): 0.045 | optical density (450 nm) ([2]; Table 5, sample 1781 (negative), peptide concentration 0.03 micrograms per milliliter): 0.051 | optical density (450 nm) ([2]; Table 5, sample 1781 (negative), peptide concentration 0.1 micrograms per milliliter, listed as HCV peptide XVIII): 0.048 | optical density (450 nm) ([2]; Table 5, sample 1781 (negative), peptide concentration 0.3 micrograms per milliliter, listed as HCV peptide XVIII): 0.048 | optical density (450 nm) ([2]; Table 5, sample 1781 (negative), peptide concentration 1.0 micrograms per milliliter, listed as HCV peptide XVIII): 0.048 | optical density (450 nm) ([2]; Table 5, sample 1781 (negative), peptide concentration 3.0 micrograms per milliliter, listed as HCV peptide XVIII): 0.053 | optical density (450 nm) ([2]; Table 8, serum 1782 (blood donor), Avidin): 0.053 | optical density (450 nm) ([2]; Table 8, serum 1784 (blood donor), Avidin): 0.047 | optical density (450 nm) ([2]; Table 8, serum 1785 (blood donor), Avidin): 0.047 | optical density (450 nm) ([2]; Table 8, serum 1794 (blood donor), Avidin): 0.104
